The text below walks through data of patent US10689384B2, “Imidazo[1,2-a]quinoxalines and derivatives thereof for the treatment of cancer” (Universite de Montpellier, priority 2014, dated 2020).

One experiment deals with human cancer cell lines. Nature of the experiment: In vitro cytotoxicity study, Summarized results 2 (cell line not given). Type of experiment: cell-based. The note with it: Homo sapiens, Table 4, Summarized results 2; cell line not stated. On the procedure:
(§1) The goal of this protocol is to study the effects of the compounds on the proliferation of various human cancer cell lines in order to evaluate the EC50 and their activity in cellulo.
(§2) The cells are seeded the day before treatment in 96 well plates. Each compound concentration is tested in triplicate. A 96 well plate can contain 3 compounds.
(§3) Stock solutions of the tested compounds are prepared at 10 mM in 100% DMSO and stored at […].
(§4) The analysis is carried out by using the GraphPad PRISM 5.0 software.
(§5) Day 1: the cells are seeded one day before treatment with the compounds in 96 well plates. Cell suspensions for each cancer cell line are prepared with a specific density in a specific culture medium (see preceding table). Next, 100 µL of cell suspension is distributed per well (1×96 well plate per cell line).
(§6) Day 2: 24 hours later, the […] compounds or controls (DMSO) are added to the cells ([…] of a compound solution in its specific medium with a final DMSO concentration of 0.15%).
(§7) Each compound concentration is tested in triplicate (6 concentrations between 10^−9 M and 10^−5 M per compound). The cells are incubated at 37° C. for 72 hours with no new treatment.
(§8) Day 5: 15 minutes before incubation of the cells with MTT (3-[4,5-dimethylthiazol-2-yl]-2,5-diphenyltetrazolium bromide), 10% SDS is added to the control wells to obtain a final concentration of 1%. The positive control of inhibition of proliferation is 1% SDS.
(§9) Once the medium is removed, 100 µL of a solution of MTT in fresh medium is added to each well (10 μL of 10×MTT solution at 5 mg/mL in PBS +[…] of fresh medium) and the plates are incubated for 4 hours at 37° C.
(§10) The MTT reaction is quenched and the medium is homogenized by addition of […] of 10% SDS/0.01 M HCl solution placed in each well. The medium is incubated for 2 hours at 37° C. before measuring its absorbance. Absorbance is measured at 570 nm.

The subject of the next experiment is IPC298. Nature of the experiment: In vitro cytotoxicity study, inhibition of cell growth (MTT). It is filed as cell-based. As to conditions: Homo sapiens, IPC-298, IPC298, melanoma, 72 hours. The procedure:
as §1, §2
(§11) Cell suspensions for each cancer cell line are prepared in culture medium with a specific density of the specific cell (see the following table). Then, 100 µL of cell suspension is spread per well (plate per one cell line).
as §3, §4, §5, §6, §7, §8, §9, §10

The next experiment concerns MEWO. Described as above. As to conditions: Homo sapiens, melanoma, 72 hours. Type of experiment: cell-based. On the procedure: as §1, §2, §11, §3, §4, §5, §6, §7, §8, §9, §10
The subject of a further experiment is BxPC3. The experiment is described as above. Type of experiment: cell-based. As to conditions: Homo sapiens, BXPC-3, BxPC3, pancreas, 72 hours. On the procedure: as §1, §2, §11, §3, §4, §5, §6, §7, §8, §9, §10
The subject of a further experiment is A2058. Described as above. It is filed as cell-based. The note with it: Homo sapiens, A2058, melanoma, 72 hours. On the procedure: as §1, §2, §11, §3, §4, §5, §6, §7, §8, §9, §10
Another experiment has as its system COLO-205. The experiment is described as above. Type of experiment: cell-based. The note with it: Homo sapiens, COLO-205, colon, 72 hours. The procedure:
as §1, §2, §11, §3, §4, §5, §6, §7, §8, §9, §10

The next experiment concerns Capan-1. The experiment is described as above. It is filed as cell-based. The note with it: Homo sapiens, Capan-1, pancreas, 72 hours. The procedure:
as §1, §2, §11, §3, §4, §5, §6, §7, §8, §9, §10

For another experiment, the system named is LoVo. The description is as above. Type of experiment: cell-based. The note with it: Homo sapiens, colon, 72 hours. On the procedure: as §1, §2, §11, §3, §4, §5, §6, §7, §8, §9, §10
A further experiment concerns AsPC-1. The experiment is described as above. As to conditions: Homo sapiens, ASPC1, AsPC-1, pancreas, 72 hours. Type of experiment: cell-based. On the procedure: as §1, §2, §11, §3, §4, §5, §6, §7, §8, §9, §10
A further experiment has as its system PF382. Described as above. It is filed as cell-based. The note with it: Homo sapiens, PF-382, PF382, lymphoid, 72 hours. On the procedure:
as §1, §2, §11, §3, §4, §5, §6, §7, §8, §9, §10

Another experiment concerns T-47D. Described as above. It is filed as cell-based. As to conditions: Homo sapiens, T47D, breast, 72 hours. The procedure:
as §1, §2, §11, §3, §4, §5, §6, §7, §8, §9, §10

For the next experiment, the system named is PC-3. The experiment is described as above. Type of experiment: cell-based. The note with it: Homo sapiens, PC-3, prostate, 72 hours. On the procedure:
as §1, §2, §11, §3, §4, §5, §6, §7, §8, §9, §10

For the next experiment, the system named is HepG2. Described as above. As to conditions: Homo sapiens, HepG2, liver, 72 hours. Type of experiment: cell-based. On the procedure:
as §1, §2, §11, §3, §4, §5, §6, §7, §8, §9, §10

In the next experiment the test system is Calu-1. The experiment is described as above. Type of experiment: cell-based. As to conditions: Homo sapiens, Calu-1, lung, 72 hours. The procedure:
as §1, §2, §11, §3, §4, §5, §6, §7, §8, §9, §10

The subject of a further experiment is CFPAC-1. The description is as above. It is filed as cell-based. The note with it: Homo sapiens, CFPAC-1, pancreas, 72 hours. On the procedure: as §1, §2, §11, §3, §4, §5, §6, §7, §8, §9, §10
The next experiment concerns A375. Described as above. The note with it: Homo sapiens, A-375, A375, melanoma, 72 hours. Type of experiment: cell-based. The procedure: as §1, §2, §11, §3, §4, §5, §6, §7, §8, §9, §10
For the next experiment, the target named is T1, purified tubulin (Sus scrofa, UniProt P02550+P02554).
T1 construct: Tubulin is prepared from pig brain; from tissue; host or cells: pig brain
Put plainly: Effect on the polymerization of purified tubulin (turbidimetry at 350 nm). Type of experiment: biochemical, pig. The note with it: 2.4 μM tubulin, 37° C. On the procedure: FIG. 1. Study of the innovative effect of compounds of the selection patent on the polymerization of purified tubulin. This is a comparative study of the effect on the polymerization of purified tubulin by compounds of the selection patent compared to that of the compounds of the patent FR 2,921,927. Polymerized tubulin absorbs at 350 nm.
Tubulin is prepared from pig brain according to the purification process described by Williams and Lee (1982). Tubulin polymerization is monitored by turbidimetry at 350 nm with an MC2 spectrophotometer (Safas, Monaco) equipped with a heat-jacketed cuvette holder. The reaction mixture was prepared at 0° C., and contains PEM buffer, 25% glycerol (v/v), 1 mM GTP, and 2.4 μM tubulin. The GTP and the tubulin are added at the last minute. […] The same volume of DMSO alone was used as a negative control. The final volume of the sample is […]. The reaction is initiated by placing the cuvette in the cell compartment of the spectrophotometer thermostated at 37° C. Ice is added 45 minutes later to launch depolymerization in order to confirm the specificity of the signal.

T1 sequence (P02550 whole entry): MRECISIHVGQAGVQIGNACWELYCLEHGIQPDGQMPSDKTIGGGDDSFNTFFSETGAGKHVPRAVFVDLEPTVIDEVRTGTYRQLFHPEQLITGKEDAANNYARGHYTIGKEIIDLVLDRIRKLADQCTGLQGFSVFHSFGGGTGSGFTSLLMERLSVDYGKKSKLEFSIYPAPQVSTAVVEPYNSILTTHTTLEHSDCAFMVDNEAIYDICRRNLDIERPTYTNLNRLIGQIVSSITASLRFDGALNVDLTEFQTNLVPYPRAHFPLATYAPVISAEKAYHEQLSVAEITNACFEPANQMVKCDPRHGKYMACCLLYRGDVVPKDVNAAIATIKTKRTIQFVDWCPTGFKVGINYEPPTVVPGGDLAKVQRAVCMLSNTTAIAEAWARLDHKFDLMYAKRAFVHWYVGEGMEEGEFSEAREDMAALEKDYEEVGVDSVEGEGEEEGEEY
T1 sequence (P02554 whole entry): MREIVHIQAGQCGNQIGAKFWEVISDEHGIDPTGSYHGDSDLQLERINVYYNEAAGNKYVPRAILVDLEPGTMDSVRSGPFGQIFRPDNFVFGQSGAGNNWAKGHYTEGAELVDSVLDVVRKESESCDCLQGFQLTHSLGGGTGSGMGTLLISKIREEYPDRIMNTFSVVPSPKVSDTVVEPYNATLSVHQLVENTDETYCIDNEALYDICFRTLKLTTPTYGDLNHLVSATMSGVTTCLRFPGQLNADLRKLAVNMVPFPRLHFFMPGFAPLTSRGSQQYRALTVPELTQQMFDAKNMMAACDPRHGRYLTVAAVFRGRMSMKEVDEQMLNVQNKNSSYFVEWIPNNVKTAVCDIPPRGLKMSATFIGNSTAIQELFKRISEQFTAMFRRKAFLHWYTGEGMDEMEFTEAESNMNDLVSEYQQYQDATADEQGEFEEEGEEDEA

The compound `CNc1nc2ccccc2n2c(-c3ccc(O)c(O)c3)cnc12` [EAPB 02303, 1-(3,4-Dihydroxyphenyl)-N-methylimidazo[1,2-a]quinoxalin-4-amine] displayed an IC50 in the experiment on human cancer cell lines of less than 3 nM. In addition, the EC50 is 40 nM in the experiment with IPC298; 3 nM in the experiment on MEWO; 11 nM in the experiment on BxPC3; 4 nM in the experiment with A2058; 38 nM in the experiment on COLO-205; 154 nM in the experiment on Capan-1. For the same compound, the EC50 with LoVo stood at 45 nM; with AsPC-1, 957 nM; with PF382, 7 nM; in the experiment on T-47D, 13 nM; in the experiment with PC-3, 12 nM; with HepG2 it was 247 nM. For the same compound, the values for the EC50 with Calu-1, in the experiment on CFPAC-1 and with A375 were 4 nM, 12 nM and 10 nM, respectively. The “Effect on polymerization of purified tubulin (absorbance level at 350 nm)” value on purified tubulin is reported as “leaves it unchanged”.

For orientation: IC50 means the concentration that inhibits the measured activity by half. As usually defined, the EC50 is the concentration at which the effect is half-maximal. Low readings indicate a more potent agent, high ones a less potent agent.
